Assay results from patent publication US8778643B2, “Methods for increasing lipid levels and producing triacylglycerols in algae” (priority 2012, dated 2014).
Where a name gives a salt, the structure may show the parent alone. Read-outs that look alike come from different tables or passages of the source.

How the values were obtained:
Nannochloropsis salina = details: for Nile Red percent increase: dose-response microplate screen; for % Inc: increase of lipid production; for % Inc / Nile Red Fluorescence % Increase / % Lipid increase based on Nile red fluorescence intensity / % Increase based on Nile Red Fluorescence Intensity / % change in abs / % in NR fl: N. salina; for Nile Red Fluorescence % Increase: compounds tested at 20 μM, initial screening, p<0.05; for % Lipid increase based on Nile red fluorescence intensity: DMSO, t=day 0; for % Increase based on Nile Red Fluorescence Intensity: DMSO delivery, added t=day 0
Description: (§1) Stock cultures were aerated by stirring with bubbling air (homemade manifold with Petco air pump, 2-4% CO2) or by orbital shaking (Thermo Scientific MAXQ 2000) at a constant speed of 150 rpm at 22±3° C. with a 16:8 hour light/dark cycle. Stocks were kept at stationary phase for use. Algae were prepared as dictated by culture center.
(§2) Compounds were selected based on reported biological activity in non-microalgae organisms. To ensure that compounds retained their quality, they were stored under advised conditions after purchasing from the manufacturer. Solutions of all assay compounds were prepared as 10 mM stock solutions by dissolving in DMSO in 2-dram amber vials and then stored in darkness −20° C. 96-well PCR plates were used to create a stock plate layout that was then transferred to the algae microplates. A plate map was used to distribute each compound to a well based on molecule name, collection number, and CAS number. For 20 μM and 200 nM assay plates, 10 mM compound stock in DMSO was diluted into plate maps of 5 mM and 50 μM assay stocks, respectively.
(§3) All materials for assay experiments were autoclaved before each use to maintain axenic algae cultures. Algae species were checked for homogeneity using a TS-100 light microscope (Nikon, Japan). […] Diluted stock solutions were made immediately prior to use for consistency and optimal plate growth. Cell density was measured on a Thermo Scientific Genesys 10S Vis Spectrophotometer (ThermoFisher, San Jose), using a 1 mL cuvette at 680 nm.
(§4) Plates were originally run in triplicate, before replicates were increased to quadruplicate, along with a separate control plate to compare growth. Due to extensive evaporation in exterior wells over time, our unique algae plate layout was designed to use the 60 interior wells out of 96 wells for the experiment. The 36 outer wells were filled with Millipore water and media to prevent evaporation and edge effects in the inner algae wells, as well as serve as blanks. The 60 wells with algae contained a total volume of 251 μL (100 μL of media+DMSO compound stock +150 μL dilute algae stock). For 20 μM and 200 nM assay plates, 10 mM compound stock in DMSO is diluted into plate maps of 5 mM and 50 μM assay stocks, respectively. […] Plates were parafilmed during growth to limit the amount of evaporation that can occur. Plates were numbered, and numerically ordered to ensure they got the same shaker space.
(§5) The shakers are kept at a constant shaking of 150 rpm. Ambient temperature is 22±3° C.

Nannochloris sp. = experiment: Microplate assay: growth (absorbance 680 nm) and intracellular lipids (Nile Red fluorescence); type: cell-based; details: for Absorbance (percent increase) / Nile Red percent increase: initial microplate screen, relative to control
Description: as §1, §2, §3, §4, §5

[1] = tested on: Phaeodactylum tricornutum; experiment: as above; type: cell-based; details: for % Inc: increase of lipid production; for % Inc / % change in abs / % in NR fl / Nile Red Fluorescence % Increase: P. tricornutum; for Nile Red Fluorescence % Increase: compounds tested at 200 nM, initial screening, p<0.05
[2] = Nannochloris sp., compounds tested at 20 μM, initial screening, p<0.05
[3] = Nannochloris sp., 49 nM, dissolved in water, added t=day 0
[4] = Nannochloris sp., compounds tested at 200 nM, initial screening, p<0.05
[5] = 200 nM, initial microplate screen, relative to control

Compound: CCNc1cc(N[C@H]2CC[C@H](O)CC2)nc(Nc2ccc3c(ccn3Cc3ccccc3)c2)n1 [CDK4 I4, trans-4-((6-(ethylamino)-2-((1-(phenylmethyl)-1H-indol-5-yl)amino)-4-pyrimidinyl)amino)-cyclohexanol]
- Nile Red percent increase (Nannochloropsis salina; 40 μM): 144%
- % Inc (Nannochloropsis salina; best conc. 40 μM): 144.22%

Compound: O=C1Cc2c([nH]c3ccc(Br)cc23)-c2ccccc2N1 [Kenpaullone, 9-Bromo-7,12-dihydro-indolo[3,2-d][1]benzazepin-6(5H)-one]
- Absorbance (percent increase) (Nannochloris sp.; 200 nM): −8.1%
- Nile Red percent increase (Nannochloris sp.; 200 nM): 77.5%
- Nile Red Fluorescence % Increase (Nannochloris sp.; [2]): 97.7%
- Nile Red Fluorescence % Increase (Nannochloropsis salina): 34.8%

Compound: COc1ccc2c(c1)c(CC(=O)O)c(C)n2C(=O)c1ccc(Cl)cc1 [Indomethacin, 1-(4-Chlorobenzoyl)-5-methoxy-2-methyl-3-indoleacetic acid]
- % Increase based on Nile Red Fluorescence Intensity (Nannochloris sp.; [3]): 81%
- Nile Red percent increase (Nannochloropsis salina; 55 nM): 118%
- % Lipid increase based on Nile red fluorescence intensity (Nannochloropsis salina; 123.5 nM): 61%
- % Increase based on Nile Red Fluorescence Intensity (Nannochloropsis salina; 123.5 nM): 61%

Compound: O=c1cc(-c2ccc(O)cc2)oc2cc(O)cc(O)c12 [Apigenin, 5,7-Dihydroxy-2-(4-hydroxyphenyl)-4H-1-benzopyran-4-one]
- Absorbance (percent increase) (Nannochloris sp.; 20 μM): −7.3%
- Nile Red percent increase (Nannochloris sp.; 20 μM): 59.9%
- Nile Red Fluorescence % Increase (Nannochloris sp.; [2]): 136.7%
- Nile Red Fluorescence % Increase (Nannochloropsis salina): 34.3%
- % Inc (Nannochloropsis salina; best conc. 39 nM): 90.17%

Compound: O=C(Oc1ccc([N+](=O)[O-])cc1)N1CCC(C(O)(c2ccc3c(c2)OCO3)c2ccc3c(c2)OCO3)CC1 [JZL 184 hydrate, 4-nitrophenyl-4-[bis(1,3-benzodioxol-5-yl)(hydroxy)methyl]piperidine-1-carboxylate]
- % change in abs (Nannochloropsis salina; 3.3 μM): −12.15%
- % in NR fl (Nannochloropsis salina; 3.3 μM): 95.70%
- % change in abs (Nannochloropsis salina; 10 μM): 13.75%
- % in NR fl (Nannochloropsis salina; 10 μM): 86.72%
- % change in abs (Nannochloropsis salina; 40 μM): 0.61%
- % in NR fl (Nannochloropsis salina; 40 μM): 118.99%
- % Lipid increase based on Nile red fluorescence intensity (Nannochloropsis salina; 40 μM): 119%
- % Increase based on Nile Red Fluorescence Intensity (Nannochloropsis salina; 40 μM): 119%

Compound: CCC(C)Nc1ccc(NC(C)CC)cc1 (stereo not drawn) [N,N′-di-sec-butyl-p-phenylenediamine, 1-N,4-N-di(butan-2-yl)benzene-1,4-diamine]
- % Inc ([1]; best conc. 156 nM): 39.51%

Compound: c1ccc(CNc2ncnc3[nH]cnc23)cc1 [Benzylamino Purine]
- % Inc ([1]; best conc. 40 μM): 120.94%

Compound: O=c1c(O)c(-c2ccc(O)c(O)c2)oc2cc(O)cc(O)c12 [Quercetin, 2-(3,4-dihydroxyphenyl)-3,5,7-trihydroxy-4H-chromen-4-one]
- Absorbance (percent increase) (Nannochloris sp.; 200 nM): −1.6%
- Nile Red percent increase (Nannochloris sp.; 200 nM): 63.5%

Compound: CC/C=C\C[C@H]1C(=O)CC[C@@H]1CC(=O)O [Jasmonic acid, (1R,2R)-3-Oxo-2-(2Z)-2-pentenyl-cyclopentaneacetic acid]
- Absorbance (percent increase) (Nannochloris sp.; 200 nM): −7.6%
- Nile Red percent increase (Nannochloris sp.; 200 nM): 87.5%
- Nile Red Fluorescence % Increase (Nannochloris sp.; [4]): 80.5%

Compound: O=C1C(Cl)=C(NCCN2CCOCC2)C(=O)c2ncccc21 [CDC25]
- Nile Red Fluorescence % Increase (Nannochloris sp.; [4]): 28.2%
- Nile Red Fluorescence % Increase (Nannochloris sp.; [2]): 130.9%

Compound: CCNc1nc(Cl)nc(NC(C)C)n1 [Atrazane, 1-Chloro-3-ethylamino-5-isopropylamino-2,4,6-triazine]
- Absorbance (percent increase) (Nannochloris sp.; 200 nM): −1.7%
- Nile Red percent increase (Nannochloris sp.; 200 nM): 86.2%

Compound: CCCCCCCCCCCCCCCC(=O)C(F)(F)F [PTFK, 1,1,1-Trifluoro-2-heptadecanone]
- % change in abs ([1]; 13 nM): 3.22%
- % in NR fl ([1]; 13 nM): 70.44%
- % change in abs ([1]; 41.2 nM): 5.05%
- % in NR fl ([1]; 41.2 nM): 67.59%

Compound: CC(C)Cc1ccc(C(C)C(=O)O)cc1 (stereo not drawn) [Ibuprofen]
- Nile Red Fluorescence % Increase (Nannochloris sp.; [2]): 80.2%
- Nile Red Fluorescence % Increase (Nannochloropsis salina): 59.0%

Compound: Cn1c(=O)c2c(ncn2C)n(C)c1=O [Caffeine, 1,3,7-trimethyl-1H-purine-2,6(3H,7H)-dione]
- Absorbance (percent increase) (Nannochloris sp.; 200 nM): −7.5%
- Nile Red percent increase (Nannochloris sp.; 200 nM): 60.4%

Compound: COc1ccc2cc([C@H](C)C(=O)O)ccc2c1 [Naproxen, (S)-(+)-2-(6-Methoxy-2-naphthyl)propionic acid]
- % Inc (Nannochloropsis salina; best conc. 156 nM): 67.44%

Compound: Oc1cc(O)c2c(c1)O[C@H](c1ccc(O)c(O)c1)[C@@H](O)C2 [(+)-Catechin, (2R,3S)-2-(3,4-dihydroxyphenyl)-3,4-dihydro-2H-chromene-3,5,7-triol]
- % Inc (Nannochloropsis salina; best conc. 39 nM): 84.21%

Compound: c1ccc(CNc2ncnc3nc[nH]c23)cc1 [Benzylaminopurine, N-(phenylmethyl)-7H-purin-6-amine]
- Absorbance (percent increase) [1, 5]: −14.6%
- Nile Red percent increase [1, 5]: 105.9%
- Nile Red Fluorescence % Increase [1]: 105.9%

Compound: NC(=O)c1cccc(-c2cccc(OC(=O)NC3CCCCC3)c2)c1 [FAAH Inhibitor II, 3′-Carbamoyl-biphenyl-3-yl-cyclohexylcarbamate]
- % Increase based on Nile Red Fluorescence Intensity (Nannochloris sp.): 167%
- % Lipid increase based on Nile red fluorescence intensity (Nannochloris sp.; Nannochloris sp., 0.6 nM, (water), t=day 0): 182%
- % Increase based on Nile Red Fluorescence Intensity (Nannochloris sp.; Nannochloris sp., 0.2 nM, dissolved in water, added t=day 0): 145%
- % Increase based on Nile Red Fluorescence Intensity (Nannochloris sp.; Nannochloris sp., 0.6 nM, dissolved in water, added t=day 0): 182%
- % Increase based on Nile Red Fluorescence Intensity (Nannochloris sp.; [3]): 154%
- % Increase based on Nile Red Fluorescence Intensity (Nannochloris sp.; Nannochloris sp., 1.3 μM, dissolved in water, added t=day 0): 144%

Compound: O=C1O[C@H]([C@@H](O)CO)C(O)=C1O [Ascorbic acid, (2R)-2-[(1S)-1,2-dihydroxyethyl]-3,4-dihydroxy-2H-furan-5-one]
- % Inc ([1]; best conc. 10 nM): 57.28%

Compound: CC/C=C\CC1C(=O)CCC1CC(=O)OC (stereo not drawn) [Methyl jasmonate]
- % Lipid increase based on Nile red fluorescence intensity (Nannochloropsis salina; 13 nM): 85%
- % Increase based on Nile Red Fluorescence Intensity (Nannochloropsis salina; 13 nM): 85%

Compound: CC(=O)N1CCN(c2ccc(OC[C@H]3CO[C@](Cn4ccnc4)(c4ccc(Cl)cc4Cl)O3)cc2)CC1 (relative stereo) [Ketoconazole, cis-1-Acetyl-4-[4-[[2-(2,4-dichlorophenyl)-2-(1H-imidazol-1-ylmethyl)-1,3-dioxolan-4-yl]methoxy]phenyl]piperazine]
- Nile Red Fluorescence % Increase (Nannochloris sp.; [4]): 258.9%
- Nile Red Fluorescence % Increase (Nannochloropsis salina): 32.0%

Compound: COc1ccc2[nH]cc(CCNC(C)=O)c2c1 [Melatonin, N-Acetyl-5-methoxytryptamine]
- % Inc ([1]; best conc. 40 μM): 47.80%

Compound: Cc1ncc(C[n+]2csc(CCO)c2C)c(N)n1 [Thiamine, Aneurine hydrochloride, Vitamin B1 hydrochloride]
- Absorbance (percent increase) (Nannochloris sp.; 200 nM): −12.1%
- Nile Red percent increase (Nannochloris sp.; 200 nM): 122.6%

Compound: O=C1Cc2c([nH]c3ccc(Br)cc23)-c2ccccc2N1 [Kenpaulllone]
- Nile Red Fluorescence % Increase (Nannochloris sp.; [4]): 84.2%

Compound: CC[C@H](CO)Nc1nc(NCc2ccccc2)c2ncn(C(C)C)c2n1 [Roscovitine]
- Nile Red Fluorescence % Increase (Nannochloris sp.): 30.8%

Compound: C/C=C/C/C=C/CCC(=O)[C@H]1O[C@H]1C(N)=O [Cerulenin, (2R,3S)-3-[(4E,7E)-Nona-4,7-dienoyl]oxirane-2-carboxamide]
- Absorbance (percent increase) (Nannochloris sp.; 200 nM): −13.2%
- Nile Red percent increase (Nannochloris sp.; 200 nM): 94.6%
- Nile Red Fluorescence % Increase (Nannochloris sp.; [4]): 107.9%

Compound: O=C(O)CC(O)(CC(=O)O)C(=O)O [Citric acid, 2-hydroxypropane-1,2,3-tricarboxylic acid]
- Absorbance (percent increase) (Nannochloris sp.; 200 nM): −6.5%
- Nile Red percent increase (Nannochloris sp.; 200 nM): 55.41%

Compound: C=C1C[C@]23C[C@@]1(O)CC[C@H]2[C@@]12C=C[C@H](O)[C@@](C)(C(=O)O1)[C@H]2[C@@H]3C(=O)O [Giberellic acid, (3S,3aS,4S,4aS,6S,8aR,8bR,11S)-6,11-Dihydroxy-3-methyl-12-methylene-2-oxo-4a,6-ethano-3,8bprop-1-enoperhydroindeno[1,2-b]furan-4-ca]
- Absorbance (percent increase) (Nannochloris sp.; 200 nM): −1.1%
- Nile Red percent increase (Nannochloris sp.; 200 nM): 70.4%

Compound: c1coc(CNc2ncnc3nc[nH]c23)c1 [Kinetin, N^6-furfuryladenine]
- Nile Red Fluorescence % Increase [1]: 25.2%
- % Inc ([1]; best conc. 39 nM): 76.29%
- Absorbance (percent increase) (Nannochloris sp.; 200 nM): −9.0%
- Nile Red percent increase (Nannochloris sp.; 200 nM): 72.4%

Compound: Indole acetic acid
- Nile Red Fluorescence % Increase (Nannochloris sp.): 95.4%
